Measured values: ChEMBL document CHEMBL1201862, “PubChem BioAssay data set” (2004)
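Following 48 hours of exposure in 96-well plates, responses at five concentrations were used to interpolate endpoints linearly. The concentration for 50% growth inhibition is given as GI50.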 Active and inactive are the calls of the source. No stated cut-off is given here; in the data, active = GI50 up to about 1.1 µM and inactive = higher.

Assays:
Assay in all cases: NCI anticancer screen, dose series, 48 h
HL-60 = test system: HL-60
SF-539 = test system: SF-539
HCC 2998 = test system: HCC 2998
SK-OV-3 = test system: SK-OV-3
SNB-75 = test system: SNB-75
KM12 = test system: KM12
CAKI-1 = test system: CAKI-1
Malme-3M = test system: Malme-3M
HCT-15 = test system: HCT-15
HCT-116 = test system: HCT-116
NCI-H460 = test system: NCI-H460
MDA-MB-231 = test system: MDA-MB-231
COLO 205 = test system: COLO 205
K562 = test system: K562
IGROV-1 = test system: IGROV-1
UACC-62 = test system: UACC-62
MOLT-4 = test system: MOLT-4
CCRF-CEM = test system: CCRF-CEM
HT-29 = test system: HT-29
EKVX = test system: EKVX
A549 = test system: A549
786-0 = test system: 786-0
NCI-H522 = test system: NCI-H522
MCF7 = test system: MCF7
RPMI-8226 = test system: RPMI-8226
OVCAR-8 = test system: OVCAR-8
PC-3 = test system: PC-3
DU-145 = test system: DU-145
Hs-578T = test system: Hs-578T
ACHN = test system: ACHN
NCI/ADR-RES = test system: NCI/ADR-RES
SN12C = test system: SN12C
NCI-H226 = test system: NCI-H226
SK-MEL-2 = test system: SK-MEL-2
SW-620 = test system: SW-620
LOX IMVI = test system: LOX IMVI
UO-31 = test system: UO-31
SR = test system: SR
U-251 = test system: U-251
HOP-92 = test system: HOP-92
T47D = test system: T47D
OVCAR-3 = test system: OVCAR-3
SNB-19 = test system: SNB-19
A498 = test system: A498
SK-MEL-28 = test system: SK-MEL-28
NCI-H23 = test system: NCI-H23
RXF 393 = test system: RXF 393
BT-549 = test system: BT-549
UACC-257 = test system: UACC-257
MDA-MB-435 = test system: MDA-MB-435
OVCAR-5 = test system: OVCAR-5
TK-10 = test system: TK-10
HOP-62 = test system: HOP-62
SK-MEL-5 = test system: SK-MEL-5
OVCAR-4 = test system: OVCAR-4
SF-268 = test system: SF-268
SF-295 = test system: SF-295
M14 = test system: M14
MDA-N = test system: MDA-N
KM-20L2 = test system: KM-20L2

Measured: GI50

CN1CCN(C(=O)CCNC(=O)Cc2ccc(C(=O)c3ccccc3)cc2)CC1
inactive: HL-60 58.3 µM | SF-539 > 100 µM | HCC 2998 50 µM | SK-OV-3 > 100 µM | SNB-75 > 100 µM | KM12 48.6 µM | CAKI-1 > 100 µM | Malme-3M > 100 µM | HCT-116 > 100 µM | NCI-H460 > 100 µM | MDA-MB-231 > 100 µM | COLO 205 74 µM | K562 27.9 µM | IGROV-1 > 100 µM | UACC-62 > 100 µM | MOLT-4 > 100 µM | CCRF-CEM 94.8 µM | HT-29 > 100 µM | EKVX > 100 µM | A549 > 100 µM | 786-0 > 100 µM | NCI-H522 > 100 µM | MCF7 > 100 µM | RPMI-8226 > 100 µM | OVCAR-8 > 100 µM | PC-3 > 100 µM | DU-145 > 100 µM | Hs-578T > 100 µM | ACHN > 100 µM | NCI/ADR-RES > 100 µM | SN12C > 100 µM | NCI-H226 > 100 µM | SK-MEL-2 > 100 µM | SW-620 97.3 µM | LOX IMVI > 100 µM | UO-31 > 100 µM | SR > 100 µM | U-251 > 100 µM | HOP-92 > 100 µM | T47D > 100 µM | OVCAR-3 > 100 µM | SNB-19 > 100 µM | A498 83.4 µM | SK-MEL-28 > 100 µM | NCI-H23 > 100 µM | RXF 393 > 100 µM | BT-549 64.3 µM | UACC-257 > 100 µM | MDA-MB-435 22.9 µM | OVCAR-5 > 100 µM | TK-10 > 100 µM | HOP-62 > 100 µM | SK-MEL-5 71.6 µM | OVCAR-4 > 100 µM | SF-268 > 100 µM | SF-295 > 100 µM | M14 > 100 µM | MDA-N 15.5 µM
> 100 µM: HCT-15

c1ccc2c(c1)CCN1CCc3c([nH]c4ccccc34)C21 (stereo unspecified)
inactive: HL-60 13.7 µM | SF-539 49 µM | HCC 2998 17.2 µM | SK-OV-3 47 µM | SNB-75 24.9 µM | KM12 26.5 µM | CAKI-1 30.3 µM | Malme-3M 18.1 µM | HCT-116 24.2 µM | NCI-H460 38.7 µM | MDA-MB-231 35.3 µM | COLO 205 21.4 µM | K562 20.5 µM | IGROV-1 29.4 µM | UACC-62 31.6 µM | MOLT-4 24.5 µM | CCRF-CEM 31.5 µM | HT-29 26.9 µM | EKVX 28.2 µM | A549 37.1 µM | 786-0 38.3 µM | NCI-H522 34 µM | MCF7 63.7 µM | RPMI-8226 23 µM | OVCAR-8 31.8 µM | PC-3 26.6 µM | DU-145 40.6 µM | Hs-578T 53.2 µM | ACHN 31.3 µM | NCI/ADR-RES 22.1 µM | SN12C 32.7 µM | NCI-H226 41.7 µM | SK-MEL-2 23 µM | SW-620 36.2 µM | LOX IMVI 22.8 µM | UO-31 28.6 µM | SR 24.4 µM | U-251 34.2 µM | HOP-92 22.2 µM | T47D 32.5 µM | OVCAR-3 24 µM | SNB-19 67.5 µM | A498 22.9 µM | SK-MEL-28 19.1 µM | NCI-H23 38.8 µM | RXF 393 21.5 µM | BT-549 27.3 µM | UACC-257 24.4 µM | MDA-MB-435 26.7 µM | OVCAR-5 22.4 µM | TK-10 42 µM | HOP-62 36 µM | SK-MEL-5 15.1 µM | OVCAR-4 35.2 µM | SF-268 30.8 µM | SF-295 20 µM | M14 16.7 µM | MDA-N 25.1 µM
36.9 µM: HCT-15

COc1ccc(/C=C\c2cc(OC)c(OC)c(OC)c2)cc1O
inactive: COLO 205 2.9 µM | HT-29 3.84 µM | EKVX 14.7 µM | BT-549 23.9 µM | OVCAR-5 5.43 µM | TK-10 56.9 µM | KM-20L2 2.01 µM
active: IGROV-1 < 0.02 µM
